Patent US9078442B2, “Herbicidally and fungicidally active 3-phenylisoxazoline-5-carboxamides and 3-phenylisoxazoline-5-thioamides” (BAYER INTELLECTUAL PROPERTY GMBH, priority 2011, dated 2015)

Columns and labels:
[1] = tested on: Mycosphaerella graminicola; test: In vivo test Mycosphaerella graminicola (wheat); details: Mycosphaerella graminicola on wheat, evaluation 21-28 days after inoculation
Protocol: Wheat plants (cultivar: (Scipion) are cultivated in 50/50 peat pozzolan substrate at 12° C. and sprayed at the 1-leaf stage with the active compound preparation as given in Example A. After 24 hours, the plants are sprayed with a spore suspension of Mycosphaerella graminicola (500 000 spores/ml).

[2] = tested on: Peronospora parasitica; test: In vivo test Peronospora parasitica (downy mildew on cabbage), protective; details: evaluation 5 days after infection
Protocol: In vivo test Peronospora parasitica (downy mildew on cabbage) To prepare an appropriate active compound formulation, the active compound is mixed with acetone/Tween/DMSO and the mixture is diluted with water to the desired concentration. Cabbage plants are cultivated in 50/50 peat/pozzolan soil in small pots at 18-20° C. and sprayed at the cotyledon stage at the respective stated application rates to test for protective activity. Control plants were treated in the same manner, but using an aqueous solution without any active compounds. 24 hours after the spraying, the plants were sprayed with a spore suspension of Peronospora parasitica (50 000 spores/ml). The plants were placed in a cabin at 20° C. in a humid atmosphere for 5 days.

[3] = tested on: Botrytis cinerea; test: In vivo test Botrytis cinerea (gray mold on cucumbers); details: Botrytis cinerea on cucumber, evaluation 5-7 days after infection
Protocol: Cucumber plants (Vert petit de Paris) are cultivated in 50/50 peat pozzolan substrate at 20-25° C. and sprayed at the Z16 stage with the active compound preparation given in Example 1. After 24 hours, the upper sides of the leaves of the plants are sprayed with a spore suspension of Botrytis cinerea (150 000 spores/ml). The spores of a 15-day old culture are collected and suspended in a nutrient solution consisting of • 20 g/l of gelatin; • 50 g/l of D-fructose; • 2 g/l of NH4NO3; • 1 g/L of KH2PO4. The inoculated cucumber plants are placed at 15-11° C. (day/night) and at 80% relative atmospheric humidity for 5-7 days.

[4] = tested on: Phytophthora infestans; format: in vivo; details: Phytophthora infestans on tomato, application rate 1200 g/ha, evaluation 5 days after infection
[5] = tested on: Sphaerotheca fuliginea; test: In vivo test Sphaerotheca fuliginea (cucumber); details: Sphaerotheca fuliginea on cucumber, evaluation 12 days after inoculation
Protocol: Cucumber plants (cultivar: Vert petit de Paris) are cultivated in 50/50 peat pozzolan substrate at 20/23° C. and sprayed at the cotyledon stage with the active compound preparation given in Example A. After 24 hours, the plants are sprayed with a spore suspension of Sphaerotheca fuliginea (100 000 spores/ml).

[6] = tested on: Alternaria brassicae; test: In vivo test Alternaria brassicae (salad radish); design: concentration or dose not given beside the values; details: Alternaria brassicae on salad radish, application rate not given, evaluation 6-7 days after inoculation
Protocol: Salad radish (cultivar Pernot) are cultivated in 50/50 peat pozzolan substrate at 18-20° C. and sprayed at the cotyledon stage with the active compound preparation given above. After 24 hours, the plants are sprayed with a spore suspension of Alternaria brassicae (40 000 spores/cm3). The inoculated plants are placed at 18° C. and in a humid atmosphere for 6-7 days. […] At an application rate of g/ha, the following efficacies are found for the following compounds.

[7] = tested on: Leptosphaeria nodorum; test: In vivo test Leptosphaeria nodorum (wheat); details: Leptosphaeria nodorum on wheat, application rate 1200 g/ha, evaluation 15-17 days after inoculation
Protocol: Wheat plants (cultivar: (Scipion) are cultivated in 50/50 peat pozzolan substrate at 12° C. and sprayed at the 1-leaf stage with the active compound preparation as given in Example A. After 24 hours, the plants are sprayed with a spore suspension of Leptosphaeria nodorum (250 000 spores/ml).

Compound | Activity [%] (efficacy) ([2]; application rate 1200 g/ha) | Activity [%] (efficacy) [4] | Activity [%] (efficacy) ([1]; application rate 500 g/ha) | Activity [%] (efficacy) ([2]; application rate 500 g/ha) | further results
CCn1cc(CNC(=O)C2(C)CC(c3cc(C)cc(C)c3)=NO2)c(C)n1 (centres unmarked) [Example 1.194] | 100 | 100 | – | – | Activity [%] (efficacy) ([1]; application rate 1200 g/ha): 88%; Activity [%] (efficacy) ([3]; application rate 1200 g/ha): 95%
CCn1cc(CNC(=O)C2(C)CC(c3cccc(Cl)c3)=NO2)c(C)n1 (centres unmarked) [Example 1.195] | 100 | 100 | 79 | – | –
CC(C)NC(=O)C1(C)CC(c2cccc(N)c2)=NO1 (centres unmarked) [Example 6.183] | – | – | – | – | Activity [%] (efficacy) ([5]; application rate 500 g/ha): 98%
CCn1cc(CNC(=O)C2(C)CC(c3cc(Cl)cc(Cl)c3)=NO2)c(C)n1 (centres unmarked) [Example 1.222] | – | 100 | – | 100 | Activity [%] (efficacy) ([1]; application rate 1200 g/ha): 96%
CC(C)NC(=O)C1(C)CC(c2cc(Cl)cc(OCC(F)(F)F)c2)=NO1 (centres unmarked) [Example 6.193] | – | – | 95 | – | Activity [%] (efficacy) ([5]; application rate 500 g/ha): 85%
Cn1cc(CNC(=O)C2(C)CC(c3cc(Cl)cc(Cl)c3)=NO2)cn1 (centres unmarked) [Example 1.285] | – | – | 75 | 100 | Activity [%] (efficacy) ([5]; application rate 500 g/ha): 89%
CCCn1cc(CNC(=O)C2(C)CC(c3cc(Cl)cc(Cl)c3)=NO2)c(C)n1 (centres unmarked) [Example 1.374] | 100 | 100 | – | – | Activity [%] (efficacy) ([3]; application rate 1200 g/ha): 98%; Activity [%] (efficacy) ([5]; application rate 1200 g/ha): 99%
CCn1cc(CNC(=O)C2(C)CC(c3cc(F)cc(Cl)c3)=NO2)c(C)n1 (centres unmarked) [Example 1.197] | 100 | 100 | – | – | Activity [%] (efficacy) ([5]; application rate 1200 g/ha): 100%
CC(C)NC(=O)C1(C)CC(c2cc(Cl)cc(Cl)c2)=NO1 (centres unmarked) [Example 6.165] | – | – | 100 | 95 | Activity [%] (efficacy) ([3]; application rate 500 g/ha): 93%; Activity [%] (efficacy) [6]: 95%
CC1(C(=O)NCC2CC2)CC(c2cc(Cl)cc(Cl)c2)=NO1 (centres unmarked) [Example 6.431] | – | – | 100 | 71 | Activity [%] (efficacy) [6]: 77%
CC(C)(C)NC(=O)C1(C)CC(c2cc(Cl)cc(Cl)c2)=NO1 (centres unmarked) [Example 6.117, N-tert-butyl-3-(3,5-dichlorophenyl)-5-methyl-4,5-dihydro-1,2-oxazole-5-carboxamide] | – | – | 91 | 92 | Activity [%] (efficacy) [6]: 73%
Cc1cc(CNC(=O)C2(C)CC(c3cc(Cl)cc(Cl)c3)=NO2)n(C)n1 (centres unmarked) [Example 1.122] | – | – | 75 | 100 | Activity [%] (efficacy) ([5]; application rate 500 g/ha): 72%
COCCCCNC(=O)C1(C)CC(c2cc(Cl)cc(Cl)c2)=NO1 (centres unmarked) [Example 6.006] | 100 | 70 | – | – | Activity [%] (efficacy) [7]: 100%
CC(C)NC(=O)C1(C)CC(c2cc(Cl)cc(C(F)(F)F)c2)=NO1 (centres unmarked) [Example 6.188] | – | – | 100 | – | Activity [%] (efficacy) ([3]; application rate 500 g/ha): 86%; Activity [%] (efficacy) [6]: 73%
CCn1cc(CNC(=O)C2(CC)CC(c3cc(Cl)cc(Cl)c3)=NO2)cn1 (centres unmarked) [Example 2.136] | 100 | 90 | – | – | Activity [%] (efficacy) ([1]; application rate 1200 g/ha): 88%
Cc1c(NC(=O)C2(C)CC(c3cc(F)cc(F)c3)=NO2)cnn1C (centres unmarked) [Example 1.007] | – | – | 73 | – | Activity [%] (efficacy) ([5]; application rate 500 g/ha): 75%
CCC(C)NC(=O)C1(C)CC(c2cc(Cl)cc(Cl)c2)=NO1 (mixture of isomers) [Example 6.217] | 100 | – | – | – | Activity [%] (efficacy) ([3]; application rate 1200 g/ha): 100%; Activity [%] (efficacy) [6]: 81%
CCn1cc(CNC(=O)C2(C3CC3)CC(c3cc(Cl)cc(Cl)c3)=NO2)c(C)n1 (centres unmarked) [Example 5.018] | – | 75 | – | 100 | Activity [%] (efficacy) ([1]; application rate 1200 g/ha): 88%
